What all share (assay): growth of human tumour cells (NCI), 48 h
For test [1], the system named is MDA-MB-231 breast.
For test [2], the system named is PC-3 prostate.
In test [3] the test system is T-47D breast.
Test [4] relates to BT-549 breast.
The test system of test [5] is DU-145 prostate.
For test [6], the system named is MCF7 breast.
Test [7] concerns HS 578T breast.

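Step 1: Grow cells in 96-well plates. Step 2: Expose to compound for 48 hours at 5 concentrations. Step 3: Interpolate endpoints linearly; if unreached, use highest concentration. The concentration for 50% growth inhibition is given as GI50. TGI is the concentration that stops growth completely.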

For the molecule `CN(C)Cc1cccc(CN(C)C)[c]1[Sn]([Br])([c]1ccccc1)[c]1ccccc1`, the GI50 is 15.9 µM in test [1]; 17.1 µM in test [2]; 4.72 µM in test [3]; 1.83 µM in test [4]; 20.2 µM in test [5]; 10.5 µM in test [6]. Also, the GI50 in test [7] was 19.8 µM. In addition, the TGI was 38.3 µM in test [1]; 96.9 µM in test [2]; 21.5 µM in test [3]; 7.94 µM in test [4]; 49.5 µM in test [5]; 24.5 µM in test [6]. Further, the TGI in test [7] turned out to be 47 µM.
As for `CC(=O)Nc1ccc2oc(=O)c3ccccc3c2c1`, the TGI in test [2], in test [3], in test [4], in test [5], in test [6] and in test [7] was more than 100 µM in each case.
As to `N=C1C(c2nc3ccccc3s2)=C(O)CN1c1ccc(Cl)cc1Cl`, the GI50 in test [1] is 17.1 µM; in test [2], 11.5 µM; in test [3] it was 44.9 µM; in test [4], 17.8 µM; in test [5], 18.9 µM; in test [6], 41.2 µM. For the same molecule, the GI50 in test [7] is 25.5 µM. For the same molecule, the TGI in test [1] was 42.9 µM; in test [2], 29 µM; in test [3], more than 100 µM; in test [4] it was 49.6 µM; in test [5] it was 63.7 µM; in test [6] it was more than 100 µM. The molecule further gave a TGI in test [7] of 75.9 µM.
As to `N#Cc1ccc(-c2nc3ccc(Cl)cc3[nH]2)cc1`, the TGI in test [1], in test [2], in test [3], in test [4], in test [6] and in test [7] was more than 100 µM each time.
With `C#Cc1cccc(Nc2ncnc3ccc(-c4cnc(Cl)c(NS(C)(=O)=O)c4)cc23)c1`, the GI50 in test [1] is 0.44 µM; in test [2], 0.297 µM; in test [3] it was 0.046 µM; in test [4], 0.183 µM; in test [5], 0.434 µM; in test [6], 0.104 µM. In test [7], the GI50 is 0.0815 µM. In addition, the TGI was 3.66 µM in test [1]; 2.82 µM in test [2]; 1.2 µM in test [3]; 1.41 µM in test [4]; 6.99 µM in test [5]; 2.57 µM in test [6]. Also, the TGI in test [7] is 0.754 µM.
As to `NC(=O)c1cc(Cl)ccc1NC(=O)c1ccccc1-c1ccccc1`, the GI50 in test [1] was 1.89 µM; in test [2], 0.567 µM; in test [3], 1.74 µM; in test [4], 0.572 µM; in test [5] it was 0.597 µM; in test [6], 0.457 µM. Also, the GI50 in test [7] is 1.07 µM. Moreover, the TGI in test [1] was 43.5 µM; in test [2] it was more than 100 µM; in test [3] it was 64.4 µM; in test [4], 52.7 µM; in test [5] it was 16 µM; in test [6], more than 100 µM. This molecule registered a TGI in test [7] of more than 100 µM.
In the case of `COc1ccc(C(=O)C(Br)C(Br)C(=O)O)cc1` (stereo not drawn), the TGI in test [1] was more than 100 µM; in test [2], more than 100 µM; in test [3], more than 100 µM; in test [4] it was 63.7 µM; in test [5] it was more than 100 µM; in test [6] it was more than 100 µM. Also, the TGI in test [7] was more than 100 µM.
In the case of `Cc1cccc2c1NC(=O)[C@@]21[C@H](C(=O)c2ccccc2)[C@]2(C(=O)Nc3ccccc32)[C@H]2CCCN21`, the GI50 is 21.3 µM in test [1]; 36.4 µM in test [2]; 20.9 µM in test [3]; 27.4 µM in test [4]; more than 100 µM in test [5]; 14.3 µM in test [6]. In test [7], the GI50 was 19.5 µM. The TGI in test [1], in test [2], in test [3], in test [4], in test [5] and in test [6] was more than 100 µM in each case. This molecule returned a TGI in test [7] of more than 100 µM.
Take `O=c1ccccc(-c2ccc(-c3ccco3)cc2)c1O`: the GI50 in test [1] was 0.704 µM; in test [2], 1.46 µM; in test [3], 1.56 µM; in test [4] it was 1.65 µM; in test [5], 0.967 µM; in test [6], 0.412 µM. In test [7], the GI50 was 4.94 µM. Besides, the TGI in test [1] is 44.4 µM; in test [2], 31.8 µM; in test [3], 80.3 µM; in test [4], 28 µM; in test [5], more than 100 µM; in test [6], 29.8 µM. The molecule also gave a TGI in test [7] of 76.9 µM.
For `Cc1ccc2c(N/N=C\c3ccco3)cc(C)nc2n1`, the GI50 in test [1] was 3.53 µM; in test [2], 6.26 µM; in test [4] it was 4.37 µM; in test [5], 6.79 µM; in test [6] it was 3.28 µM; in test [7], 5.83 µM. Moreover, the TGI worked out at 13.5 µM in test [1]; 22.5 µM in test [2]; 14.9 µM in test [4]; 20.1 µM in test [5]; 15.5 µM in test [6]; 29.6 µM in test [7].
With `N#C/C(=C/C=C/c1ccccc1)S(=O)c1ccccc1` (stereo not drawn), the GI50 in test [1] is 0.371 µM; in test [2], 1.35 µM; in test [3], 0.298 µM; in test [4], 0.712 µM; in test [5] it was 0.316 µM; in test [7], 2.95 µM. The TGI in test [1] is 1.56 µM; in test [2] it was 3.33 µM; in test [3], 5.62 µM; in test [4], 2.35 µM; in test [5], 1.2 µM; in test [7], 39.8 µM.
Regarding `Cc1ccc(C(=O)CCC2C(=O)CC(C)(C)CC2=O)cc1`, the TGI in test [1], in test [2], in test [4], in test [5], in test [6] and in test [7] was more than 100 µM throughout.
In the case of `NCCCn1c2c(c3cc4c(cc3c1=O)OCO4)C(=O)c1ccccc1-2`, the GI50 in test [1] was 1.45 µM; in test [2], 0.134 µM; in test [3], 5.18 µM; in test [5], 0.907 µM; in test [7] it was 1.88 µM. Besides, the TGI is 2.88 µM in test [1]; 0.6 µM in test [2]; more than 100 µM in test [3]; 2.63 µM in test [5]; 4.4 µM in test [7].
`C/C=C1\C(=O)O[C@@H]2C1C[C@@H]1O[C@H]2[C@H](C)CCC/C(C)=C/CC[C@@]1(C)O` (stereo partly drawn): the GI50 is 8.36 µM in test [1], 11.8 µM in test [2], 42.7 µM in test [3] and 2.33 µM in test [6]. In addition, the TGI was 21.7 µM in test [1], 25.8 µM in test [2], more than 100 µM in test [3] and 6.1 µM in test [6].
On to `Oc1cccc(Cn2c(-c3cccc(O)c3O)nc3ccccc32)c1O`, for which the GI50 in test [1] was 0.92 µM; in test [2], 6.69 µM; in test [4] it was 18.9 µM; in test [5] it was 4.89 µM; in test [6] it was 1.44 µM; in test [7] it was 26.9 µM. For the same molecule, the TGI in test [1] is 7.71 µM; in test [2] it was 34.2 µM; in test [4] it was 81.1 µM; in test [5] it was 20.5 µM; in test [6] it was 13.8 µM; in test [7] it was more than 100 µM.
For the molecule `N#Cc1nn(C2OC(COC(=O)c3ccccc3)C(OC(=O)c3ccccc3)C2OC(=O)c2ccccc2)c2nc[nH]c(=O)c12` (stereo not drawn), the TGI in test [1], in test [2], in test [3], in test [5], in test [6] and in test [7] was more than 100 µM in each case.
For the molecule `CCCCNC(=O)Oc1ccc2c(=O)c3sc4c(=O)c5ccccc5c(=O)c4c3c(=O)c2c1`, the GI50 is 1.39 µM in test [1]; 2.11 µM in test [3]; 0.154 µM in test [4]; 0.158 µM in test [5]; 0.429 µM in test [6]; 0.279 µM in test [7]. The TGI in test [1] was 5.91 µM; in test [3], 5.4 µM; in test [4] it was 0.293 µM; in test [5], 0.294 µM; in test [6] it was 2.18 µM; in test [7] it was 0.86 µM.
As for `COc1cccc(-c2nc(-c3ccc(NC(=O)c4ccccc4)cc3)[nH]c2-c2ccnc(Br)c2)c1`, the GI50 in test [1] was 3.97 µM; in test [2], 3.25 µM; in test [3], 2.44 µM; in test [4], 3.3 µM; in test [6] it was 2.4 µM; in test [7], 0.339 µM. Moreover, the TGI in test [1] is more than 100 µM; in test [2], more than 100 µM; in test [3], more than 100 µM; in test [4], more than 100 µM; in test [6] it was more than 100 µM; in test [7], 1.75 µM.

For the origin of these results see PubChem BioAssay (NCI).
